Assay results from PMC11995238, “Discovery of Highly Potent BET Inhibitors based on a Tractable Tricyclic Scaffold” (ACS Medicinal Chemistry Letters, 2025).
Values after ≈ are worked out from the molar mass of the structure shown. Values joined by “and” are separate entries in the source; they are usually repeats but may differ in a detail not shown here. Equal values may be shown once. Read-outs that look alike come from different tables or passages of the source.

Tests used:
[1] = parallel artificial membrane permeability assay (PAMPA); assay type: in vitro ADME
Procedure: Additionally, the in vitro permeability of these compounds was determined by a parallel artificial membrane permeability assay (PAMPA). […] This would be protonated at physiological pH and decrease the overall affinity of the compound toward the hydrophobic membrane region.
(§1) hydrophobicity (chrom LogD7.4), solubility (CAD), permeability (PAMPA)
(§2) and metabolic stability (CLint) have all been described previously.1

[2] = kinetic solubility by CAD; assay type: physicochemical; conditions: n = 1
Procedure: (§3) For both enantiomers, kinetic solubility, permeability and metabolic stability data, the latter measured by in vitro microsomal intrinsic clearance (CLint) in rats and humans, was collected (Table ). , Docking of 44 and 45 into the BRD4-BD1 binding pocket was also carried out (Figures S3–4).
as §1, §2

[3] = in vitro metabolic stability in human liver microsomes (CLint); assay type: in vitro ADME, humans; conditions: n = 1
Procedure: as §3, §1, §2

[4] = in vitro metabolic stability in rat liver microsomes (CLint); assay type: in vitro ADME, rats; conditions: n = 1
Procedure: as §3, §1, §2

[5] = hydrophobicity (chrom LogD7.4) and property forecast index (PFI); assay type: physicochemical; conditions: for PFI: PFI = chrom LogD7.4 + #Ar; for chromatographic logD: pH 7.4, chromatographic
Procedure: (§4) Potency was determined against BRD4-BD1 using FRET binding, with this being treated as a surrogate of BRD4 activity given the homology between BD1 and BD2 across the BET proteins. , PFI is calculated from hydrophobicity plus aromatic ring count (chromatographic (chrom) logD7.4 + #Ar), with this metric being indicative of developability, or likelihood of progression to a drug candidate. PFI was used to assess the physicochemical profile of compounds, with a target of PFI < 7 as risks for several parameters, including solubility, are increased above this upper limit. Our objective was to develop a BET inhibitor with high potency and favorable physicochemical properties, as determined using PFI and LipE to guide compound optimization.
as §1, §2

BRD4-BD1 [6] = target: T1, BRD4-BD1 (Homo sapiens, UniProt O60885); assay: BRD4-BD1 FRET binding; conditions: for pIC50 ± SD: n = 4
Procedure: as §4

BRD4-BD1 [7] = target: T1, BRD4-BD1; assay: lipophilic efficiency (LipE = pIC50 – cLogP); conditions: predicted using Data Warrior
Source text: The final BET inhibitor discussed is BMS-986158 (4) (Figure ).

BRD4 [8] = conditions: binding to BRD4, reported; cited from earlier work
BRD2 = conditions: binding to BRD2, reported; cited from earlier work
BRD3 = conditions: binding to BRD3, reported; cited from earlier work
[9] = tested on: panel of human lung cancer cell lines; conditions: reported; cited from earlier work
BRD4 [10] = conditions: BRD4, AlphaScreen; cited from earlier work
c-Myc expression = conditions: advanced malignancies such as AML; cited from earlier work
tumor cell = conditions: advanced malignancies such as AML; cited from earlier work
[11] = cited from earlier work
[12] = Phase I studies; cited from earlier work
BRD4 [13] = conditions: BRD4, fluorescence polarization; cited from earlier work
BRD4 [14] = conditions: BRD4, FRET binding; cited from earlier work
[15] = BRD4-BD1, FRET binding, n = 2, enantiomers
[16] = BRD4-BD1, values for 29, 30, 40

| SMILES | Papp [1] [×10⁻⁶ cm/s] | PFI [5] | LipE (BRD4-BD1 [7]) | pIC50 ± SD (BRD4-BD1 [6]; BRD4-BD1, FRET binding) | also measured |
| --- | --- | --- | --- | --- | --- |
| Cc1nnn(C)c1-c1ccc2c3nnc(NCCO)nc3n([C@@H](c3ccccn3)C3CCOCC3)c2c1 (single isomer, unassigned) [Compound 44] | 7.78 | 7.14 | 6.16 | – | Solubility [2]: 134 µg/mL (≈ 268 µM); microsomal CLint [3]: < 10 µL/min/mg; microsomal CLint [4]: < 10 µL/min/mg; chromatographic logD [5]: 2.14; pIC50 (BRD4-BD1 [6]; [15]): 8.35 ± 0.01 |
| Cc1nnn(C)c1-c1ccc2c3nnc(NCCO)nc3n([C@H](c3ccccn3)C3CCOCC3)c2c1 (single isomer, unassigned) [Compound 45] | 9.36 | 7.14 | 5.83 | – | Solubility [2]: 138 µg/mL (≈ 276 µM); microsomal CLint [3]: < 10 µL/min/mg; microsomal CLint [4]: < 10 µL/min/mg; pIC50 (BRD4-BD1 [6]; [15]): 8.02 ± 0.08 |
| Cc1nnn(C)c1-c1cnc2c3ccc(C(C)(C)O)cc3n([C@@H](c3ccccc3)C3CCOCC3)c2c1 (stereo in doubt) [Compound 4, BMS-986158, reference compound] | 49.8 | 9.08 | 3.51 | – | IC50 (BRD4 [8]): 1.1 nM; IC50 (BRD2): 0.8 nM; IC50 (BRD3): 1.4 nM; Solubility [2]: 109 µg/mL (≈ 220 µM); chromatographic logD [5]: 4.08; cytotoxicity [9]: potent cytotoxicity |
| Cc1sc2c(c1C)C(c1ccc(Cl)cc1)=N[C@@H](CC(=O)OC(C)(C)C)c1nnc(C)n1-2 [Compound 1, JQ1] | – | – | – | – | pIC50 (BRD4 [10]): 7.10; c-Myc expression (c-Myc expression): effectively downregulate; tumor cell proliferation (tumor cell): inhibit tumor cell proliferation; half-life [11]: 1 h; oral bioavailability [11]: low |
| COc1cc2c(cc1-c1c(C)noc1C)ncc1[nH]c(=O)n([C@H](C)c3ccccn3)c12 [Compound 2, I-BET151] | – | – | – | – | c-Myc expression (c-Myc expression): effectively downregulate; cardiotoxicity [12]: exhibited cardiotoxicity; tumor cell proliferation (tumor cell): inhibit tumor cell proliferation; pIC50 (BRD4 [13]): 6.10 |
| CCS(=O)(=O)Nc1ccc(Oc2ccc(F)cc2F)c(-c2cn(C)c(=O)c3[nH]ccc23)c1 [Compound 3, N-(4-(2,4-Difluorophenoxy)-3-(6-methyl-7-oxo-6,7-dihydro-1H-pyrrolo[2,3-c]pyridin-4-yl)phenyl)ethanesulfonamide] | – | – | – | – | c-Myc expression (c-Myc expression): effectively downregulate; tumor cell proliferation (tumor cell): inhibit tumor cell proliferation; pIC50 (BRD4 [14]): 8.82 |
| COCCNc1nnc2c(n1)[nH]c1cc(-c3c(C)noc3C)ccc12 [Compound 5a] | – | 6.83 | 4.39 | 6.22 ± 0.05 | – |
| COCCNc1nnc2c(n1)[nH]c1ccc(-c3c(C)noc3C)cc12 [Compound 5b] | – | 6.78 | 3.82 | 5.64 ± 0.05 | – |
| COCCNc1nnc2c3ccc(-c4c(C)noc4C)cc3n(Cc3ccccc3)c2n1 [Compound 12a] | – | 10.6 | 4.22 | 7.53 ± 0.12 | – |
| COCCNc1nnc2c3cc(-c4c(C)noc4C)ccc3n(Cc3ccccc3)c2n1 [Compound 12b] | – | 10.8 | 2.77 | 6.08 ± 0.34 | – |
| COCCNc1nnc2c3ccc(-c4c(C)noc4C)cc3n(Cc3ccc(F)cc3)c2n1 [Compound 13a] | – | 10.7 | 3.93 | 7.34 ± 0.04 | – |
| COCCNc1nnc2c3cc(-c4c(C)noc4C)ccc3n(Cc3ccc(F)cc3)c2n1 [Compound 13b] | – | 10.8 | 2.77 | 6.18 ± 0.05 | – |
| COCCNc1nnc2c3ccc(-c4c(C)noc4C)cc3n(C(c3ccccc3)C3CCOCC3)c2n1 (stereo not drawn) [Compound 22] | – | 10.6 | 3.69 | 8.27 ± 0.31 | – |
| COCCNc1nnc2c3cc(-c4c(C)noc4C)ccc3n(C(c3ccccc3)C3CCOCC3)c2n1 (stereo not drawn) [Compound 23] | – | 10.7 | 1.75 | 6.33 ± 0.03 | – |
| COCCNc1nnc2c3ccc(-c4c(C)noc4C)cc3n(C(c3ccccn3)C3CCOCC3)c2n1 (stereo not drawn) [Compound 24] | – | 9.74 | 4.38 | 8.01 ± 0.11 | – |
| COCCNc1nnc2c3ccc(-c4c(C)noc4C)cc3n(C(c3ccccc3)C3CCNCC3)c2n1 (stereo not drawn) [Compound 27] | – | 7.96 | 3.20 | 7.63 ± 0.05 | – |
| COCCNc1nnc2c3ccc(-c4c(C)noc4C)cc3n(C(c3ccccn3)C3CCNCC3)c2n1 (stereo not drawn) [Compound 28] | – | 7.37 | 4.25 | 7.74 ± 0.12 | – |
| Cc1noc(C)c1-c1ccc2c3nnc(NCCO)nc3n(C(c3ccccn3)C3CCNCC3)c2c1 (stereo not drawn) [Compound 29] | < 0.3 | 6.74 and < 7 | 4.23 | – | pIC50 (BRD4-BD1 [6]; [16]): 7.29 ± 0.06 |
| COCCNc1nnc2c3ccc(-c4c(C)nnn4C)cc3n(C(c3ccccn3)C3CCNCC3)c2n1 (stereo not drawn) [Compound 30] | < 0.3 | 6.46 and < 7 | 4.93 | – | pIC50 (BRD4-BD1 [6]; [16]): 7.41 ± 0.03 |
| Cc1nnn(C)c1-c1ccc2c3nnc(NCCO)nc3n(C(c3ccccn3)C3CCOCC3)c2c1 (stereo not drawn) [Compound 40] | 10.4 | 7.15 | 5.79 | – | pIC50 (BRD4-BD1 [6]; [16]): 7.98 ± 0.17 |
